Results: patent US20240382629A1, “HETEROBIVALENT AND HOMOBIVALENT AGENTS TARGETING FIBROBLAST ACTIVATION PROTEIN ALPHA AND/OR PROSTATE-SPECIFIC MEMBRANE ANTIGEN” (The Johns Hopkins University, priority 2021, published 2024)
“And” between values parts separate entries of the source, which are not always exact repeats. Equal values may be shown once.

Experiment: Biodistribution of [^18F]JHU1221785 with cold FAPI-04 blocker
Format: in vivo, mouse
Conditions: for % ID/g Bladder / % ID/g Blood / % ID/g Brain / % ID/g Fat / % ID/g Heart / % ID/g Kidney / % ID/g Large intestine / % ID/g Lung / % ID/g Muscle / % ID/g Pancreas / % ID/g Salivary gland / % ID/g Small intestine / % ID/g Spleen / % ID/g Stomach / % ID/g Tumor: single mouse
[1] = + Blocker Cold FAPI-04 (10 nmole), 60 min

Q: For `N#C[C@@H]1CCCN1C(=O)CNC(=O)c1ccnc2ccc(OCCCNC(=O)[C@@H](CC(=O)O)NC(=O)[C@@H](CC(=O)O)NC(=O)c3ccc([18F])nc3)cc12` [[^18F]JHU1221785], which “% ID/g Mean Bladder” value (30 min) is on record?
A: 2.81 % ID/g

Q: What about the “% ID/g Bladder” value (30 min) of the same molecule?
A: 0.93 % ID/g and 4.69 % ID/g

Q: And the “% ID/g Mean Bladder” value (60 min)?
A: 0.84 % ID/g

Q: What about the “% ID/g Bladder” value (60 min) of the same molecule?
A: 0.76 % ID/g and 0.92 % ID/g

Q: And the “% ID/g Mean Bladder” value [1]?
A: 0.45 % ID/g

Q: And the “% ID/g Bladder” value [1]?
A: 0.23 % ID/g and 0.67 % ID/g

Q: And the “% ID/g Mean Blood” value (30 min)?
A: 4.94 % ID/g

Q: What about the “% ID/g Blood” value (30 min) of the same molecule?
A: 5.98 % ID/g and 3.90 % ID/g

Q: And the “% ID/g Mean Blood” value (60 min)?
A: 3.57 % ID/g

Q: And the “% ID/g Blood” value (60 min)?
A: 2.56 % ID/g and 4.57 % ID/g

Q: What about the “% ID/g Mean Blood” value [1] of the same molecule?
A: 4.68 % ID/g

Q: What about the “% ID/g Blood” value [1] of the same molecule?
A: 0.11 % ID/g and 9.26 % ID/g

Q: What about the “% ID/g Mean Brain” value (30 min) of the same molecule?
A: 0.14 % ID/g

Q: And the “% ID/g Brain” value (30 min)?
A: 0.14 % ID/g and 0.15 % ID/g

Q: What about the “% ID/g Mean Brain” value (60 min) of the same molecule?
A: 0.10 % ID/g

Q: And the “% ID/g Brain” value (60 min)?
A: 0.09 % ID/g and 0.12 % ID/g

Q: What about the “% ID/g Mean Brain” value [1] of the same molecule?
A: 0.03 % ID/g

Q: What about the “% ID/g Brain” value [1] of the same molecule?
A: 0.02 % ID/g and 0.04 % ID/g

Q: What about the “% ID/g Mean Fat” value (30 min) of the same molecule?
A: 0.20 % ID/g

Q: And the “% ID/g Fat” value (30 min)?
A: 0.21 % ID/g and 0.19 % ID/g

Q: What about the “% ID/g Mean Fat” value (60 min) of the same molecule?
A: 0.22 % ID/g

Q: And the “% ID/g Fat” value (60 min)?
A: 0.22 % ID/g and 0.21 % ID/g

Q: And the “% ID/g Mean Fat” value [1]?
A: 0.12 % ID/g

Q: And the “% ID/g Fat” value [1]?
A: 0.03 % ID/g and 0.21 % ID/g

Q: And the “% ID/g Mean Femur” value (30 min)?
A: 2.61 % ID/g

Q: What about the “% ID/g Mean Femur” value (60 min) of the same molecule?
A: 2.07 % ID/g

Q: What about the “% ID/g Mean Femur” value [1] of the same molecule?
A: 1.51 % ID/g

Q: What about the “% ID/g Mean Heart” value (30 min) of the same molecule?
A: 2.26 % ID/g

Q: And the “% ID/g Heart” value (30 min)?
A: 2.51 % ID/g and 2.01 % ID/g

Q: What about the “% ID/g Mean Heart” value (60 min) of the same molecule?
A: 1.56 % ID/g

Q: What about the “% ID/g Heart” value (60 min) of the same molecule?
A: 1.38 % ID/g and 1.73 % ID/g

Q: What about the “% ID/g Mean Heart” value [1] of the same molecule?
A: 0.07 % ID/g

Q: What about the “% ID/g Heart” value [1] of the same molecule?
A: 0.06 % ID/g and 0.07 % ID/g

Q: And the “% ID/g Mean Kidney” value (30 min)?
A: 2.47 % ID/g

Q: What about the “% ID/g Kidney” value (30 min) of the same molecule?
A: 1.60 % ID/g and 3.33 % ID/g

Q: And the “% ID/g Mean Kidney” value (60 min)?
A: 0.91 % ID/g

Q: And the “% ID/g Kidney” value (60 min)?
A: 0.79 % ID/g and 1.04 % ID/g

Q: What about the “% ID/g Mean Kidney” value [1] of the same molecule?
A: 0.46 % ID/g

Q: What about the “% ID/g Kidney” value [1] of the same molecule?
A: 0.41 % ID/g and 0.51 % ID/g

Q: And the “% ID/g Mean Large intestine” value (30 min)?
A: 0.72 % ID/g

Q: What about the “% ID/g Large intestine” value (30 min) of the same molecule?
A: 0.58 % ID/g and 0.86 % ID/g

Q: What about the “% ID/g Mean Large intestine” value (60 min) of the same molecule?
A: 0.69 % ID/g

Q: What about the “% ID/g Large intestine” value (60 min) of the same molecule?
A: 0.61 % ID/g and 0.78 % ID/g

Q: What about the “% ID/g Mean Large intestine” value [1] of the same molecule?
A: 0.20 % ID/g

Q: And the “% ID/g Large intestine” value [1]?
A: 0.08 % ID/g and 0.33 % ID/g

Q: What about the “% ID/g Mean Liver” value (30 min) of the same molecule?
A: 7.32 % ID/g

Q: What about the “% ID/g Mean Liver” value (60 min) of the same molecule?
A: 7.84 % ID/g

Q: What about the “% ID/g Mean Liver” value [1] of the same molecule?
A: 9.89 % ID/g

Q: And the “% ID/g Mean Lung” value (30 min)?
A: 2.65 % ID/g

Q: What about the “% ID/g Lung” value (30 min) of the same molecule?
A: 2.77 % ID/g and 2.53 % ID/g

Q: And the “% ID/g Mean Lung” value (60 min)?
A: 2.18 % ID/g

Q: What about the “% ID/g Lung” value (60 min) of the same molecule?
A: 1.70 % ID/g and 2.65 % ID/g

Q: And the “% ID/g Mean Lung” value [1]?
A: 0.17 % ID/g

Q: What about the “% ID/g Lung” value [1] of the same molecule?
A: 0.13 % ID/g and 0.20 % ID/g

Q: And the “% ID/g Mean Muscle” value (30 min)?
A: 0.96 % ID/g

Q: And the “% ID/g Muscle” value (30 min)?
A: 0.81 % ID/g and 1.12 % ID/g

Q: And the “% ID/g Mean Muscle” value (60 min)?
A: 0.98 % ID/g

Q: What about the “% ID/g Muscle” value (60 min) of the same molecule?
A: 1.06 % ID/g and 0.89 % ID/g

Q: And the “% ID/g Mean Muscle” value [1]?
A: 0.06 % ID/g

Q: And the “% ID/g Muscle” value [1]?
A: 0.04 % ID/g and 0.07 % ID/g

Q: What about the “% ID/g Mean Pancreas” value (30 min) of the same molecule?
A: 2.31 % ID/g

Q: What about the “% ID/g Pancreas” value (30 min) of the same molecule?
A: 1.92 % ID/g and 2.71 % ID/g

Q: And the “% ID/g Mean Pancreas” value (60 min)?
A: 2.07 % ID/g

Q: What about the “% ID/g Pancreas” value (60 min) of the same molecule?
A: 1.96 % ID/g and 2.17 % ID/g

Q: And the “% ID/g Mean Pancreas” value [1]?
A: 0.13 % ID/g

Q: What about the “% ID/g Pancreas” value [1] of the same molecule?
A: 0.05 % ID/g and 0.22 % ID/g

Q: And the “% ID/g Mean Salivary gland” value (30 min)?
A: 2.93 % ID/g

Q: And the “% ID/g Salivary gland” value (30 min)?
A: 2.81 % ID/g and 3.05 % ID/g

Q: What about the “% ID/g Mean Salivary gland” value (60 min) of the same molecule?
A: 3.45 % ID/g

Q: And the “% ID/g Salivary gland” value (60 min)?
A: 2.17 % ID/g and 4.73 % ID/g

Q: What about the “% ID/g Mean Salivary gland” value [1] of the same molecule?
A: 0.05 % ID/g

Q: And the “% ID/g Salivary gland” value [1]?
A: 0.04 % ID/g and 0.06 % ID/g

Q: What about the “% ID/g Mean Small intestine” value (30 min) of the same molecule?
A: 2.49 % ID/g

Q: And the “% ID/g Small intestine” value (30 min)?
A: 2.60 % ID/g and 2.38 % ID/g

Q: And the “% ID/g Mean Small intestine” value (60 min)?
A: 1.83 % ID/g

Q: What about the “% ID/g Small intestine” value (60 min) of the same molecule?
A: 1.65 % ID/g and 2.01 % ID/g

Q: And the “% ID/g Mean Small intestine” value [1]?
A: 3.54 % ID/g

Q: What about the “% ID/g Small intestine” value [1] of the same molecule?
A: 0.88 % ID/g and 6.19 % ID/g

Q: What about the “% ID/g Mean Spleen” value (30 min) of the same molecule?
A: 1.00 % ID/g

Q: And the “% ID/g Spleen” value (30 min)?
A: 1.03 % ID/g and 0.97 % ID/g

Q: And the “% ID/g Mean Spleen” value (60 min)?
A: 0.93 % ID/g

Q: And the “% ID/g Spleen” value (60 min)?
A: 0.78 % ID/g and 1.09 % ID/g

Q: And the “% ID/g Mean Spleen” value [1]?
A: 0.16 % ID/g

Q: What about the “% ID/g Spleen” value [1] of the same molecule?
A: 0.08 % ID/g and 0.25 % ID/g

Q: And the “% ID/g Mean Stomach” value (30 min)?
A: 0.82 % ID/g

Q: And the “% ID/g Stomach” value (30 min)?
A: 0.72 % ID/g and 0.92 % ID/g

Q: What about the “% ID/g Mean Stomach” value (60 min) of the same molecule?
A: 0.71 % ID/g

Q: What about the “% ID/g Stomach” value (60 min) of the same molecule?
A: 0.60 % ID/g and 0.81 % ID/g

Q: And the “% ID/g Mean Stomach” value [1]?
A: 0.16 % ID/g

Q: And the “% ID/g Stomach” value [1]?
A: 0.09 % ID/g and 0.23 % ID/g

Q: And the “% ID/g Mean Tumor” value (30 min)?
A: 1.24 % ID/g

Q: What about the “% ID/g Tumor” value (30 min) of the same molecule?
A: 1.14 % ID/g and 1.34 % ID/g

Q: What about the “% ID/g Mean Tumor” value (60 min) of the same molecule?
A: 2.23 % ID/g

Q: And the “% ID/g Tumor” value (60 min)?
A: 2.59 % ID/g and 1.47 % ID/g

Q: What about the “% ID/g Mean Tumor” value [1] of the same molecule?
A: 0.10 % ID/g

Q: And the “% ID/g Tumor” value [1]?
A: 0.08 % ID/g and 0.11 % ID/g
